Measurements taken from patent US11767330B2, “Citrate salt, pharmaceutical compositions, and methods of making and using the same” (Foghorn Therapeutics Inc., priority 2021, dated 2023).
“Also recorded” adds a separate entry of the source.

Columns and labels:
[1] = test system: synovial sarcoma cell lines (SYO1, Yamato, HS-SY-II, and ASKA); test: Growth of synovial sarcoma cell lines, IncuCyte confluency / crystal violet / colony imaging (Example 2); type: cell-based; settings: FIGS. 4, 5, 6
Procedure: (§1) Cells were treated with DMSO or the BRD9 degrader, Compound 1, at indicated concentrations, and proliferation was monitored from day 7 to day 14 by measuring confluency overtime using an IncuCyte live cell analysis system (FIG. 4). Growth medium and compounds were refreshed every 3-4 days.
(§2) Cells were seeded into 12-well plates and treated with DMSO, 1 μM BRD9 inhibitor, Compound 2 (also known as BI-7273, see Martin et al, J Med Chem. 59(10):4462-4475 (2016); see structure of compound 2 below), or 1 μM BRD9 degrader, Compound 1.
(§3) The number of cells was optimized for each cell line. Growth medium and compounds were refreshed every 3-5 days. SYO1, Yamato, A549, 293T and HS-SY-II cells were fixed and stained at day 11. ASKA cells were fixed and stained at day 23. Staining was done by incubation with crystal violet solution (0.5 g Crystal Violet, 27 ml 37% Formaldehyde, 100 mL 10×PBS, 10 mL Methanol, 863 dH20 to 1 L) for 30 min followed by 3× washes with water and drying the plates for at least 24 h at room temperature. Subsequently plates were scanned on an Odyssey CLx Imaging system (FIG. 5).
(§4) Cells were seeded into 96-well ultra-low cluster plate (Costar, #7007) in 200 μL complete media and treated at day 2 with DMSO, Staurosporin, or BRD9 degrader, Compound 1, at indicated doses (FIG. 2C). Media and compounds were changed every 5 d and cell colonies were imaged at day 14.

[2] = test system: non-synovial control cancer cell lines (293T, A549, G401); test: Growth of non-synovial control cancer cell lines (Example 2); type: cell-based
Procedure: as §1, §2, §3, §4

[3] = test system: synovial sarcoma cell lines (SYO1, HS-SY-II, and ASKA); test: Growth of synovial sarcoma cell lines, crystal violet day 14 (Example 3); type: cell-based; settings: daily treatment
Procedure: (§5) Procedure: Cells were seeded into 6-well or 12-well plates and were treated daily with a BRD9 degrader (Compound 1), a bromo-domain BRD9 binder (Compound 2), E3 ligase binder (lenalidomide), DMSO, or staurosporin (positive control for cell killing), at indicated concentrations. The number of cells was optimized for each cell line. Growth media was refreshed every 5 days. By day 14, medium was removed, cells were washed with PBS, and stained using 500 μL of 0.005% (w/v) crystal violet solution in 25% (v/v) methanol for at least 1 hour at room temperature. Subsequently plates were scanned on an Odyssey CLx Imaging system.

[4] = test system: non-synovial control cancer cell lines (RD, HCT116, and Calu6); test: Growth of non-synovial control cancer cell lines, crystal violet day 14 (Example 3); type: cell-based; settings: daily treatment
Procedure: as §5

[5] = Interconversion between Enantiomer 1 and Enantiomer 2 in cell medium (chiral LC/MS-MS); type: physicochemical; settings: 0.2 μM dosed enantiomer, cell medium 37° C.
Procedure: For the assessment of interconversion between Enantiomer 1 and Enantiomer 2 in cell medium, the following test was performed. […] At designated time point, aliquot (50 μL) was taken and processed by the addition of 150 μL of acetonitrile containing 0.1% formic acid and internal standard for LC/MS-MS analysis. Peak areas of both Enantiomer 1 and Enantiomer 2 were determined for each sample using a chiral specific analytical method.

BRD9 [6] = molecular target: T1, BRD9 (Homo sapiens, UniProt Q9H8M2); test: Pharmacodynamic BRD9 level in SYO-1 xenograft, western blot (Example 14); type: in vivo, mice; set-up: Tumors were lysed with 1×RIPA lysis buffer; from tissue; host or cells: SYO-1 xenograft tumours in BALB/c Nude mice; settings: SYO-1 Xenograft model; for pharmacodynamic activity, BRD9 protein level by western blot: BALB/c Nude mice, single dose i.v. (Table 6)
T1 sequence (Q9H8M2 1-597): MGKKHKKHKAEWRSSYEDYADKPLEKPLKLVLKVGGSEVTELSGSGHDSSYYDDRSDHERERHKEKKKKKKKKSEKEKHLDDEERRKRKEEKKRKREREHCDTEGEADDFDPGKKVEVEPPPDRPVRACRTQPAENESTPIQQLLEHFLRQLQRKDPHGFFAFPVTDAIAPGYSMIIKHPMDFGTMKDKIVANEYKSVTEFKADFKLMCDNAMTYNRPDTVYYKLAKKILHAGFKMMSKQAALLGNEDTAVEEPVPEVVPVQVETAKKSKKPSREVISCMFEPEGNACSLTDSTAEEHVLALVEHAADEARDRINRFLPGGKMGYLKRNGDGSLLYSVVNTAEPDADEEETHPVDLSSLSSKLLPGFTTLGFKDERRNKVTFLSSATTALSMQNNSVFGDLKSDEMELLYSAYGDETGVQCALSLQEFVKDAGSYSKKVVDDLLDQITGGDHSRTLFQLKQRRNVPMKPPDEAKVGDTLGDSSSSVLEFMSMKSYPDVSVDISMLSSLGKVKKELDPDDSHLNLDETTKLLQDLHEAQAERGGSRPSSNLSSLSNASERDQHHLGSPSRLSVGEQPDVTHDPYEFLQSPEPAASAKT

BRD9 [7] = molecular target: T1, BRD9; test: BRD9 degradation western blot in ASKA cells (Example 13); type: cell-based; set-up: degradation endogenous BRD9 protein in two synovial sarcoma cell lines; endogenous in cells; host or cells: ASKA synovial sarcoma cells; settings: for DC50: read-out: Fitted DC50
Procedure: […] Cells were then harvested, washed with cold PBS, and frozen in cell pellets at −80° C. Lysates were prepared by resuspending thawed pellets in 1×RIPA Lysis and Extraction buffer (Thermo Fisher, Cat #89900) with 1× Halt™ Protease and Phosphatase Inhibitor Cocktail, EDTA-free (Thermo Fisher, Cat #78441) and 1:1000 dilution Pierce™ Universal Nuclease for Cell Lysis 25 ku (Thermo Fisher, Cat #88700). Lysates were incubated on ice for 10 minutes and then centrifuged in 4° C. at maximum speed (15,000 rpm) for 10 minutes. Samples were then analyzed for total protein using BCA protein quantification assay and diluted to 1 μg/μL with lysis buffer and 1× NuPAGE™ LDS Sample Buffer (4×) (Thermo Fisher, Cat #NP0007) and 1×DTT from 30× stock (Cell Signaling Technologies, Cat #14265S). Samples with 20-25 ug of total protein were loaded into 4-12% Bis-Tris Mini-Gel with 1×MES Running buffer and run at 150V for 45 minutes. Gels were transferred using Trans-Blot® Turbo™ Transfer System (semi-dry) at 25V for 10 minutes (High MW setting) on nitrocellulose blots. Blots were blocked in 5% milk in TBST for 1 hour and probed with BRD9 antibody (Bethyl Labs, Cat #A303-781A, 1:750 for SYO1, and Cell Signaling Technologies, Cat #71232S for ASKA) and beta-Actin antibody (Cell Signaling Technologies, Cat #3700, 1:2,000) overnight at 4° C. The next day, blots were washed in TBST 3× and probed with 1:5,000 IRDye® 680LT Goat anti-Rabbit IgG Secondary Antibody (LiCOR, Cat #926-68021) and 1:10,000 IRDye® 800CW Goat anti-Mouse IgG Secondary Antibody (LiCOR, Cat #926-32210) in LiCOR Odyssey® Blocking Buffer (TBS) for 1 hour at room temperature. Blots were washed in TBST 3× and scanned at […] wavelength using LiCOR Odyssey® CLx Imaging System. Western blot signal was quantified using same analyses program included in the same machine. BRD9 signal was quantified by normalizing to beta-actin signal and all samples were normalized to DMSO, set as 100% signal.

BRD9 [8] = molecular target: T1, BRD9; test: BRD9 degradation western blot in SYO-1 cells (Example 13); type: cell-based; set-up: degradation endogenous BRD9 protein in two synovial sarcoma cell lines; endogenous in cells; host or cells: SYO1 (SYO-1) synovial sarcoma cells; settings: for DC50: read-out: Fitted DC50; for degradation of endogenous BRD9 protein at early time point: two synovial sarcoma cell lines (SYO-1 and ASKA)
Procedure: Synovial sarcoma cells were plated in 6-well plate at […] cells/well and treated with serial concentrations of BRD9 degrader (10 nM top concentration, diluted 1:3) the next day for two time points at 37° C. Cells were then harvested, washed with cold PBS, and frozen in cell pellets at −80° C. Lysates were prepared by resuspending thawed pellets in 1×RIPA Lysis and Extraction buffer (Thermo Fisher, Cat #89900) with 1× Halt™ Protease and Phosphatase Inhibitor Cocktail, EDTA-free (Thermo Fisher, Cat #78441) and 1:1000 dilution Pierce™ Universal Nuclease for Cell Lysis 25 ku (Thermo Fisher, Cat #88700). Lysates were incubated on ice for 10 minutes and then centrifuged in 4° C. at maximum speed (15,000 rpm) for 10 minutes. Samples were then analyzed for total protein using BCA protein quantification assay and diluted to 1 μg/μL with lysis buffer and 1× NuPAGE™ LDS Sample Buffer (4×) (Thermo Fisher, Cat #NP0007) and 1×DTT from 30× stock (Cell Signaling Technologies, Cat #14265S). Samples with 20-25 ug of total protein were loaded into 4-12% Bis-Tris Mini-Gel with 1×MES Running buffer and run at 150V for 45 minutes. Gels were transferred using Trans-Blot® Turbo™ Transfer System (semi-dry) at 25V for 10 minutes (High MW setting) on nitrocellulose blots. Blots were blocked in 5% milk in TBST for 1 hour and probed with BRD9 antibody (Bethyl Labs, Cat #A303-781A, 1:750 for SYO1, and Cell Signaling Technologies, Cat #71232S for ASKA) and beta-Actin antibody (Cell Signaling Technologies, Cat #3700, 1:2,000) overnight at 4° C. The next day, blots were washed in TBST 3× and probed with 1:5,000 IRDye® 680LT Goat anti-Rabbit IgG Secondary Antibody (LiCOR, Cat #926-68021) and 1:10,000 IRDye® 800CW Goat anti-Mouse IgG Secondary Antibody (LiCOR, Cat #926-32210) in LiCOR Odyssey® Blocking Buffer (TBS) for 1 hour at room temperature. Blots were washed in TBST 3× and scanned at […] wavelength using LiCOR Odyssey® CLx Imaging System. Western blot signal was quantified using same analyses program included in the same machine. BRD9 signal was quantified by normalizing to beta-actin signal and all samples were normalized to DMSO, set as 100% signal.

Structure (SMILES)	growth of synovial sarcoma cell lines [1]	growth of non-synovial control cancer cell lines [2]	growth of synovial sarcoma cell lines [3]	growth of non-synovial control cancer cell lines [4]	% Enantiomer 2 ([5]; 2 h)	% Enantiomer 2 ([5]; 6 h)	pharmacodynamic activity, BRD9 protein level by western blot (BRD9 [6])	DC50 (BRD9 [7]; 0.5 h)	BRD9 degradation activity (BRD9 [7]; 30 minutes, up to 10 μM)	DC50 (BRD9 [7]; 2 h)	DC50 (BRD9 [8]; SYO-1, 1 h)	DC50 (BRD9 [8]; SYO-1, 6 h)	degradation of endogenous BRD9 protein at early time point (BRD9 [8])	% Enantiomer 2 ([5]; 0 h)	% Enantiomer 2 ([5]; 0.5 h)	duration of BRD9 degradation after a single dose (BRD9 [6]; single dose i.v.)	difference in DC50 between Enantiomer 1 and Enantiomer 2 (BRD9 [7]; 2 h)	difference in DC50 between Enantiomer 1 and Enantiomer 2 (BRD9 [8]; SYO1, 6 h)	BRD9 degradation compared to racemic compound D1 (BRD9 [8]; SYO-1, 1 or 6 hours (FIGS. 16 and 17))	active enantiomer in degrading BRD9 in cells (BRD9 [8]; overall conclusion of Example 13)
COc1cc(-c2cn(C)c(=O)c3cnccc23)cc(OC)c1CN(C)C [Compound 2]	inhibition of the growth of the cells	does not result in inhibition of the growth	inhibition of the growth of the cells	did not result in inhibition of the growth	–	–	–	–	–	–	–	–	–	–	–	–	–	–	–	–
COc1cc(-c2cn(C)c(=O)c3cnc(N4CCC4)cc23)cc(OC)c1CN1CCC(CN2CCC3(CC2)CN(c2ccc4c(c2)C(=O)N([C@H]2CCC(=O)NC2=O)C4)C3)CC1 (single isomer, unassigned; enantiomer 1) [Enantiomer 1]	–	–	–	–	12%	30%	inactive and did not degrade BRD9 protein	> 10 nM	no discernable activity	0.38 nM	2.8 nM	0.066 nM	largely inactive or with much reduced degradation potency	–	–	–	–	–	–	–
COc1cc(-c2cn(C)c(=O)c3cnc(N4CCC4)cc23)cc(OC)c1CN1CCC(CN2CCC3(CC2)CN(c2ccc4c(c2)C(=O)N([C@@H]2CCC(=O)NC2=O)C4)C3)CC1 (single isomer, unassigned; enantiomer 2) [Enantiomer 2]	–	–	–	–	82%	63%	significant activity; also recorded: equipotent to racemic compound D1	0.34 nM	–	0.012 nM	0.092 nM	0.023 nM	much more potent	99%	95%	degraded BRD9 up to 72 hours after a single dose	about 32 fold	ca. 3 fold	slightly better than its racemic parent compound D1 in degrading BRD9 but overall comparable	active enantiomer
